This note sets out measurements from patent US20160320408A1, “METHODS OF T CELL EPITOPE PROFILING, MAKING T CELL COMPOSITIONS, AND TREATING DISEASES” (priority 2013, published 2016).

Assay type in all cases: cell-based, human
For assay [1], the system named is PBMC from a healthy donor.
In assay [2] the test system is PBMC from a healthy donor. The source holds these as a separate data set.
For another assay, the system named is donor cells (PBMC).

In the case of IVVYNLQSKITLPNDRTTPV [TT2], in assay [1], the “IFNγ over a positivity threshold set at 2.5-fold above the negative control (no peptide) cultures” value is 0 pg/mL.

As for NLVPMVATV [CMVpp65], the “detection of IFNγ secreting T-cells, direct ex vivo ELISpot (in words)” value in assay [2] is reported as “readily detectable”.

Consider IDKISDVSTIVPYIGPALNI [TT4], for which the “IFNγ response (in words)” value in assay [1] was “only one operator (HK) detecting a robust response”. Besides, the “generation of peptide-reactive T-cell line (in words)” value in the assay with donor cells (PBMC) is reported as “successfully generated”.

As for DIKNDLYEKTLNDYKAIANK [TT1], the “IFNγ over a positivity threshold set at 2.5-fold above the negative control (no peptide) cultures” value in assay [1] is 0 pg/mL.
